Entries after “also recorded” stand apart in the source; their conditions may differ.
Tests used:
DEN/CCl4-induced HCC = test: DEN/CCl4-induced liver fibrosis associated HCC model; type: in vivo, C3H mice
Description: (§1) In vivo hepatocellular carcinoma treatment studies […]
mouse PD-1 (200 µg/mouse; BioXcell, BE0146). The therapeutic efficacy and the changes in immune cells were analyzed after two weeks of treatment. The tumor volume was calculated with the following formula: volume = width × length × height/2. The lung metastatic nodules

[1] = Metabolic stability in liver microsomes; type: in vitro ADME; details: mouse, rat, dog, and human
Excerpt: Figure S4. The metabolic stabilities of BPRCX807 in liver microsomes. BPRCX807 is […]

orthotopic HCA-1 tumors = test: Orthotopic HCA-1 HCC model; type: in vivo, C3H mice; details: for Overall survival: n = 8
Description: as §1
(§2) mouse PD-1 (200 µg/mouse; BioXcell, BE0146). The therapeutic efficacy and the changes in immune cells were analyzed after two weeks of treatment. The tumor volume was calculated with the following formula: volume = width × length × height/2. […]
Hematoxylin and Eosin staining
Lung tissue was cut into small pieces and fixed in 4% PFA (in PBS) overnight before being embedded in paraffin wax. The sections were then stained with hematoxylin and eosin (H&E) and observed with an inverted microscope (IX83, Olympus, Japan).
HCA-1 tumor-bearing mice were anesthetized, perfused via intracardiac injection with PBS and then sacrificed. Tumor tissues were collected and harvested in enzyme-containing DMEM cell culture medium (1.5 mg/mL of collagenase type 1A and hyaluronidase; Sigma).
The tissues were cut and ground into smaller pieces and then digested for 1 h at 37 °C to form suspensions of single tumor cells. The suspensions were filtered through a 70-µm cell strainer (Corning, Manassas, VA), and the cells were then incubated with rat anti-mouse CD16/CD32 mAbs to block Fc receptors. After washing 3 times and resuspending in cold flow buffer (1% BSA, 0.1% NaN3 in PBS), the single-cell suspensions were incubated with monoclonal anti-mouse F4/80-PE (eBiosciences, San Diego, CA), 7-AAD, CD3e-APC, CD8a-PE-Cy7, CD45-FITC, CD4-PE (BD Biosciences, East Rutherford, NJ), CD86-APC-

in vivo [2] = details: ICR, mouse, sc
bradykinin B1 receptor = target: T1, bradykinin B1 receptor (Homo sapiens, UniProt P46663); test: Off-target standard assay (radioligand binding, Eurofins Panlabs); details: read-out: Inhibition of bradykinin B1 receptor (B1R)
T1 construct: purchased Eurofins Panlabs, Inc (Taipei, Taiwan, ROC)
T1 sequence (P46663 1-353): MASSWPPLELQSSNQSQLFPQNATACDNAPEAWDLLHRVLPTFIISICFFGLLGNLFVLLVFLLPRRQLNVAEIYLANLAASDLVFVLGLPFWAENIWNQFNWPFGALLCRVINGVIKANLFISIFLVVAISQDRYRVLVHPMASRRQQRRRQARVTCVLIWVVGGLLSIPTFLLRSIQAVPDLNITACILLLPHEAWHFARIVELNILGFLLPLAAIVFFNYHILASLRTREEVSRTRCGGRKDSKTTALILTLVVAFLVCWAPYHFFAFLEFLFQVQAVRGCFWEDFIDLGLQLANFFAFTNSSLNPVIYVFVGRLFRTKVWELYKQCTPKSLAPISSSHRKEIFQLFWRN
Excerpt: (§3) Table: List of genes examined by real-time PCR and the primer sequences used.
(§4) Genes Forward primers Reverse primers […]
(§5) Vim 5’-[…]-3’ 5’-[…]-3’ […]
(§6) Zeb2 5’-[…]-3’ 5’-[…]-3’
(§7) Twist1 5’-[…]-3’ 5’-[…]-3’
(§8) Cdh1 5’-[…]-3’ 5’-[…]-3’
(§9) Mta3 5’-[…]-3’ 5’-[…]-3’ […]
(§10) Off-target standard assays
(§11) Methods employed in this study have been adapted from the scientific literature to […]
(§12) maximize reliability and reproducibility. Reference standards were run as an integral part of […]
(§13) each assay to ensure the validity of the results obtained. Radioligand binding Assays were […]
(§14) performed under conditions described in the accompanying "Methods" section of this report […]
(§15) by Eurofins Panlabs, Inc (Taipei, Taiwan, ROC).
(§16) BPRCX807 were tested in the hERG (hERG-CHO, automated patch-clamp) assay and determined at Eurofins Panlabs (Missouri, USA). The experiment was accepted in accordance with Eurofins validation Standard Operating Procedure.
(§17) Selectivity Screening of various chemokine receptors
(§18) The results were performed by Eurofins DiscoverX (Fremont, California, USA). The

dopamine D3 receptor = target: T2, dopamine D3 receptor (Homo sapiens, UniProt P35462); test: as above; details: read-out: Inhibition of dopamine D3 receptor (D3R)
T2 construct: purchased Eurofins Panlabs, Inc (Taipei, Taiwan, ROC)
T2 sequence (P35462 whole entry, species assumed): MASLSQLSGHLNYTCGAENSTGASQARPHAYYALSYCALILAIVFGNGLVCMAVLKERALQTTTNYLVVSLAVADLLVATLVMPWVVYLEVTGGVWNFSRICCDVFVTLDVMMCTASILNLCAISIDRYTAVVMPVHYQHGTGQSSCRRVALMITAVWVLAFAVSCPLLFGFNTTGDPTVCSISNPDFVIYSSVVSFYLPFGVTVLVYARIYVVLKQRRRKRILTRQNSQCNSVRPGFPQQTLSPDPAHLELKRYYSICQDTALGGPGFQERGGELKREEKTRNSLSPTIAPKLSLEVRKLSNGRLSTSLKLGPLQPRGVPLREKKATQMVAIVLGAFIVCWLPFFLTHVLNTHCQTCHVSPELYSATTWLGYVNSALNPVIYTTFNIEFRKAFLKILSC
Excerpt: as §3, §4, §5, §6, §7, §8, §9, §10, §11, §12, §13, §14, §15, §16, §17, §18

orthotopic JHH-7 tumors = test: Orthotopic JHH-7 HCC model; type: in vivo, nude mice; details: combination with sorafenib (40 mg/kg/d, oral); BPRCX807 15 mg/kg/d SC minipump
Description: as §1, §2

in vivo [3] = details: male, C57BL/6, mouse, in vivo, sc, 6 mg/kg
Description: Pharmacokinetics and toxicological studies
Male C57BL/6 mice, each weighing 23.4–25.4 g, were quarantined for 1 week before drug treatment. Compounds dissolved in 100% saline were individually given to mice (n = 3) subcutaneously (6 mg/kg; nonfasted mice). Blood samples were collected via cardiac puncture at defined time points (0 (immediately before dosing), 0.03, 0.08, 0.25, 0.5, 1, 2, and 4 h after dosing) and then stored at −80 °C. The volume of the dosing solution given was 100 µL for each mouse. The plasma samples were analyzed by liquid chromatography– tandem mass spectrometry (LC–MS/MS), and the data were calculated by a standard noncompartmental method using the Kinetica software program (InnaPhase). […]

[4] = alone or combined with sorafenib

SMILES: Cc1cc(NC2CCN(C(=O)CCNCC(=O)O)CC2)nc(NCc2nc(CCCNCCCNC3CCCCC3)co2)n1 [BPRCX807]
- Tumors in fibrotic liver (DEN/CCl4-induced HCC; combination with anti–PD-1, BPRCX807 15 mg/kg/d SC minipump weeks 25 to 28): remarkably suppressed
- Tumor size (DEN/CCl4-induced HCC; combination with sorafenib): significantly reduce tumor size more efficiently than sorafenib alone
- Metabolic stability in liver microsomes [1]: metabolically stable
- Lung metastasis (number of lung nodules) (orthotopic HCA-1 tumors; BPRCX807 combined with sorafenib, day 24): significantly suppress lung metastasis
- Proportion of M1-like CD86+ TAMs in tumors (orthotopic HCA-1 tumors; [4]): increasing the proportion
- Proportion of M2-like CD206+ TAMs in tumors (orthotopic HCA-1 tumors; [4]): decreasing
- Tumor size reduction vs. control (orthotopic HCA-1 tumors; combination of BPRCX807 (15 mg/kg/d SC) with anti–PD-1 (200 μg/mouse IP), day 24): more than 95%
- Lung metastasis (orthotopic HCA-1 tumors; combination with anti–PD-1): significantly prevented
- Overall survival (orthotopic HCA-1 tumors; combination with anti–PD-1 vs either alone): significantly prolonged
- Tumor volume reduction (orthotopic HCA-1 tumors; combination with sorafenib (40 mg/kg/d, oral), BPRCX807 15 mg/kg/d SC minipump): roughly 85%
- Overall survival (orthotopic HCA-1 tumors; combination with sorafenib vs BPRCX807 (P = 0.0123) or sorafenib (P = 0.0053) alone): significantly extended
- F4/80+ TAMs infiltration into tumor (flow cytometry) (orthotopic HCA-1 tumors; treatment alone): significantly decreased
- CD8+ T cell infiltration into tumors (orthotopic HCA-1 tumors; treatment alone, compared to no treatment): moderately increased
- Intratumoral mean vessel density (MVD, CD31+ staining) (orthotopic HCA-1 tumors; treatment alone, day 24): significantly decrease intratumoral MVD
- Lung metastasis (number of lung nodules) (orthotopic HCA-1 tumors; treatment alone, day 24): reduced; also recorded: significantly suppress lung metastasis
- Tumor growth (orthotopic HCA-1 tumors; treatment alone, immunotherapy study, day 24): moderately inhibiting tumor growth
- MTD (in vivo [2]): 75 mg/kg
- inhibition at 10 µM (bradykinin B1 receptor): 62%
- inhibition at 10 µM (dopamine D3 receptor): 58%
- Tumor volume reduction (orthotopic JHH-7 tumors): ~77%
- AUC(0-t) (in vivo [3]): 16500 ng·h/mL
- Cmax (in vivo [3]): 18800 ng/mL
- half-life (in vivo [3]): 1 h
